In article PMC5820187 (Archives of toxicology, 2017):
Read-outs that look alike come from different tables or passages of the source.

How the values were obtained:
CYP1A protein expression = conditions: zebrafish, in vivo
embryonic zebrafish [1] = conditions: for Bioactivity across the developmental toxicity assays (morphology, EPR, LPR): exposure 6-120 hpf
zebrafish larvae = test: Larval photomotor response; format: in vivo; conditions: 120 hpf larvae; for LPR effect: at least one phase (light or dark)
embryonic zebrafish [2] = test: Embryonic photomotor response; format: in vivo; conditions: 24 hpf embryos; for EPR effect: any phase
[3] = static exposure 6-120 hpf, 0.1-50 μM, assessed at 24 and 120 hpf
[4] = hierarchical clustering of lowest effect levels, Fig 2

## c1ccc2c(c1)oc1ccccc12 [Dibenzofuran]
CYP1A protein expression
  Tissue Type expressing CYP1A: Vasculature

## Cc1cccc2c1ccc1cc(C(C)C)ccc12 [Retene]
CYP1A protein expression
  Tissue Type expressing CYP1A: Vasculature

## CCc1ccc2c(c1)C(=O)c1ccccc1C2=O [2-ethylanthraquinone]
Embryonic zebrafish [1]; zebrafish, in vivo
  Mortality and morphological effects (developmental toxicity endpoints, LELs): increased mortality
  Number of developmental endpoints affected: 15
Zebrafish larvae
  LPR effect: every derivative except 2-nitroanthracene and 2-ethylanthraquinone affected LPR behavior
CYP1A protein expression
  Tissue Type expressing CYP1A: Yolk

## O=C1C=CC(=O)c2cc3ccccc3cc21 [1,4-anthraquinone]
Embryonic zebrafish [1]; 0.1-50 μM
  Bioactivity across the developmental toxicity assays (morphology, EPR, LPR): most toxic derivative tested
Embryonic zebrafish [1]; static exposure 6-120 hpf
  Concentrations with increased mortality: below 10 μM

## Oc1cccc2ccccc12 [1-hydroxynaphthalene]
Embryonic zebrafish [1]; zebrafish, in vivo
  Mortality and morphological effects (developmental toxicity endpoints, LELs): effects on mortality or morphology

## c1cc2ccc3cccc4ccc(c1)c2c34 [Pyrene]
Zebrafish larvae
  LPR effect: significant LPR effects

## c1ccc2c(c1)cc1ccc3cc4ccccc4c4ccc2c1c34 [Dibenzo[a,i]pyrene]
Embryonic zebrafish [1]; [3]
  Mortality and morphological effects (developmental toxicity endpoints, LELs): no observed morphology effects

## Cc1cccc2c(C)cccc12 [1,5-dimethylnaphthalene]
CYP1A protein expression
  Tissue Type expressing CYP1A: Liver

## c1ccc2c(c1)cc1ccc3c4ccccc4cc4ccc2c1c43 [Dibenzo[a,h]pyrene]
Embryonic zebrafish [2]
  EPR effect in the Refractory period: hypoactive response

## Cc1ccc2cc(C)ccc2c1 [2,6-dimethylnaphthalene]
Zebrafish larvae
  LPR effect: All derivatives except 2,6-dimethylnaphthalene had LPR effects in at least one phase

## c1ccc2c(c1)ccc1ccccc12 [Phenanthrene]
Zebrafish larvae
  LPR effect in the light phase: hyperactivity
Embryonic zebrafish [2]
  EPR effect: did not induce mortality or morphology changes, EPR effects

## c1ccc2ccccc2c1 [Naphthalene]
Zebrafish larvae
  LPR effect in the dark phase: hyperactivity
  LPR effect in the light phase: hyperactivity

## Oc1cc2ccccc2cc1O [2,3-dihydroxynaphthalene]
Embryonic zebrafish [2]
  EPR effect: significant effects on EPR

## O=[N+]([O-])c1cc2ccc3cccc4ccc(c1)c2c34 [2-nitropyrene]
Embryonic zebrafish [1]; 0.1-50 μM
  Bioactivity across the developmental toxicity assays (morphology, EPR, LPR): only the cumulative ‘any’ endpoints

## Cc1ccc2ccc3ccc(C)cc3c2c1 [3,6-dimethylphenanthrene]
Zebrafish larvae
  LPR effect in the light phase: effects on LPR in the light
Embryonic zebrafish [2]
  EPR effect: hypoactivity

## O=[N+]([O-])c1ccc2cc3ccccc3cc2c1 [2-nitroanthracene]
Zebrafish larvae
  LPR effect: every derivative except 2-nitroanthracene and 2-ethylanthraquinone affected LPR behavior

## Oc1cccc2c(O)cccc12 [1,5-dihydroxynaphthalene]
Embryonic zebrafish [1]; [3]
  Mortality and morphological effects (developmental toxicity endpoints, LELs): effects on mortality or morphology

## c1ccc2c(c1)-c1cccc3cccc-2c13 [Fluoranthene]
CYP1A protein expression
  Tissue Type expressing CYP1A: Vasculature, Yolk

## c1ccc2c(c1)cc1ccc3cccc4c5ccccc5c2c1c34 [Dibenzo[a,l]pyrene]
Embryonic zebrafish [1]; [4]
  Developmental toxicity profile group: Groups 1 and 2

## O=C1C=Cc2ccccc2C1=O [1,2-naphthoquinone]
Embryonic zebrafish [1]; [3]
  Mortality and morphological effects (developmental toxicity endpoints, LELs): effects on mortality or morphology

## c1ccc2ncccc2c1 [Quinoline]
Embryonic zebrafish [1]; zebrafish, in vivo
  Developmental toxicity profile group: Group 5
Embryonic zebrafish [2]
  EPR effect: only had an observed effect on EPR

## c1ccc2cc3c4ccccc4c4ccccc4c3cc2c1 [Dibenz[a,c]anthracene]
Embryonic zebrafish [1]; [4]
  Developmental toxicity profile group: Groups 1 and 2

## O=C1c2ccccc2C(=O)c2ccccc21 [Anthraquinone]
Embryonic zebrafish [1]; [3]
  Mortality and morphological effects (developmental toxicity endpoints, LELs): did not cause morphological effects

## c1ccc2[nH]ccc2c1 [Indole]
CYP1A protein expression
  Tissue Type expressing CYP1A: Yolk

## Oc1ccc2ccccc2c1 [2-hydroxynaphthalene]
Embryonic zebrafish [1]; zebrafish, in vivo
  Mortality and morphological effects (developmental toxicity endpoints, LELs): effects on mortality or morphology

## c1ccc2cc3ccccc3cc2c1 [Anthracene]
Embryonic zebrafish [1]; [3]
  Mortality and morphological effects (developmental toxicity endpoints, LELs): no observed morphology effects
